target: VR (Homo sapiens, UniProt Q8NER1); assay: not given; settings: binds to VR with no more than moderate affinity; typical value; cited from earlier work
Sequence (Q8NER1 whole entry): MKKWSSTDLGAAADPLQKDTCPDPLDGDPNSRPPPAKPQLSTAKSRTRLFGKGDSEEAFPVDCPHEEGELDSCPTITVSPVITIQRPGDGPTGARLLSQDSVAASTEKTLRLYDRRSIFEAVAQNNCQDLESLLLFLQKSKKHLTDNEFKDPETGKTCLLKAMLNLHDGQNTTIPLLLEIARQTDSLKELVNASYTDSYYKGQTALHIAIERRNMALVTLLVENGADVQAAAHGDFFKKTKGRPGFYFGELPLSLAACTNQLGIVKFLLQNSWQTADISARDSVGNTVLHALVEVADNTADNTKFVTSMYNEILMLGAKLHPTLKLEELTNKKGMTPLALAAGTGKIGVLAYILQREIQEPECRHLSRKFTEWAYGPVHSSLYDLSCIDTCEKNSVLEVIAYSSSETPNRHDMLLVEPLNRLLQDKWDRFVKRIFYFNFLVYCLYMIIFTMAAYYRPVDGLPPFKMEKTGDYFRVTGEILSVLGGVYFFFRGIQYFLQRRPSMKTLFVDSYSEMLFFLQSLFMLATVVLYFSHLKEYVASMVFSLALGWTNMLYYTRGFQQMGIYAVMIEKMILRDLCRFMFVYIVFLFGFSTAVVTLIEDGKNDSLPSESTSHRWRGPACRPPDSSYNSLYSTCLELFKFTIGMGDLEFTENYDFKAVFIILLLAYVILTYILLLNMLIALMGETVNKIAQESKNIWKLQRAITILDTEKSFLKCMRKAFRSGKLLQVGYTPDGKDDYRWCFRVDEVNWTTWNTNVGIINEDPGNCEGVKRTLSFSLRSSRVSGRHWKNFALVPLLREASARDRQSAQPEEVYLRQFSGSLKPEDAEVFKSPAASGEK

| SMILES | Ki |
| --- | --- |
| Cl.Cl.Cl.Cl.Cl.Cl.N.N.N.N.N.N.N.N.N.N.N.N.N.N.[O-2].[O-2].[Ru+3].[Ru+3].[Ru+4] [ruthenium red] | ≥ 140000 nM |

target: T1, human capsaicin receptor (Homo sapiens, UniProt Q8NER1); assay: Calcium mobilization assay, determination of antagonist activity; type: cell-based; settings: 50% decrease in the fluorescence response of cells expressing human capsaicin receptor exposed to capsaicin
T1 construct: transfected with the pBK-CMV expression construct encoding the full length human capsaicin receptor; expressed in transfected cells; host or cells: HEK293, stably transfected with the pBK-CMV construct
Experimental: A cDNA encoding full length human capsaicin receptor (SEQ ID NO:1, 2 or 3 of U.S. Pat. No. 6,482,611) is subcloned in the plasmid pBK-CMV (Stratagene, La Jolla, Calif.) for recombinant expression in mammalian cells.
Human embryonic kidney (HEK293) cells are transfected with the pBK-CMV expression construct encoding the full length human capsaicin receptor using standard methods. The transfected cells are selected for two weeks in media containing G418 (400 μg/ml) to obtain a pool of stably transfected cells. Independent clones are isolated from this pool by limiting dilution to obtain clonal stable cell lines for use in subsequent experiments.
Cells transfected with expression plasmids (as described in Example 4) and thereby expressing human capsaicin receptor are seeded and grown to 70-90% confluency in FALCON black-walled, clear-bottomed 96-well plates (#3904, BECTON-DICKINSON, Franklin Lakes, N.J.). The culture medium is emptied from the 96 well plates and FLUO-3 AM calcium sensitive dye (Molecular Probes, Eugene, Oreg.) is added to each well (dye solution: 1 mg FLUO-3 AM, 440 μL DMSO and 440 μl 20% pluronic acid in DMSO, diluted 1:250 in Krebs-Ringer HEPES (KRH) buffer (25 mM HEPES, 5 mM KCl, 0.96 mM NaH2PO4, 1 mM MgSO4, 2 mM CaCl2, 5 mM glucose, 1 mM probenecid, pH 7.4), 50 μL diluted solution per well). Plates are covered with aluminum foil and incubated at 37° C. for 1-2 hours in an environment containing 5% CO2. After the incubation, the dye is emptied from the plates, and the cells are washed once with KRH buffer, and resuspended in KRH buffer.
To measure the ability of a test compound to agonize or antagonize a calcium mobilization response in cells expressing capsaicin receptors to capsaicin or other vanilloid agonist, the EC50 of the agonist capsaicin is first determined. An additional 20 μl of KRH buffer and 1 μl DMSO is added to each well of cells, prepared as described above. 100 μl capsaicin in KRH buffer is automatically transferred by the FLIPR instrument to each well. Capsaicin-induced calcium mobilization is monitored using either FLUOROSKAN ASCENT (Labsystems; Franklin, Mass.) or FLIPR (fluorometric imaging plate reader system; Molecular Devices, Sunnyvale, Calif.) instruments. Data obtained between 30 and 60 seconds after agonist application are used to generate an 8-point concentration response curve, with final capsaicin concentrations of 1 nM to 3 μM. KALEIDAGRAPH software (Synergy Software, Reading, Pa.) is used to fit the data to the equation: y=a*(1/(1+(b/x)^c)) to determine the 50% excitatory concentration (EC50) for the response. In this equation, y is the maximum fluorescence signal, x is the concentration of the agonist or antagonist (in this case, capsaicin), a is the Emax, b corresponds to the EC50 value and c is the Hill coefficient. Determination of Agonist Activity
Test compounds are dissolved in DMSO, diluted in 20 μl KRH buffer so that the final concentration of test compounds in the assay well is between 1 μM and 5 μM, and added to cells prepared as described above. The 96 well plates containing prepared cells and test compounds are incubated in the dark, at room temperature for 0.5 to 6 hours. It is important that the incubation not continue beyond 6 hours. Just prior to determining the fluorescence response, 100 μl capsaicin in KRH buffer at twice the EC50 concentration determined as described above is automatically added by the FLIPR instrument to each well of the 96 well plate for a final sample volume of 200 μl and a final capsaicin concentration equal to the EC50. The final concentration of test compounds in the assay wells is between 1 μM and 5 μM. […] The concentration of antagonist required to provide a 50% decrease, relative to the response observed in the presence of capsaicin and without antagonist, is the IC50 for the antagonist, and is preferably below 1 micromolar, 100 nanomolar, 10 nanomolar or 1 nanomolar.

T1 sequence (Q8NER1 whole entry): as above

| SMILES | IC50 |
| --- | --- |
| CC(C)COCc1nc2nc(-c3ncccc3C(F)(F)F)ccc2c2c1Oc1cc(C(F)(F)F)ccc1N2 [Compound 12, 6-Isobutoxymethyl-9-trifluoromethyl-3-(3-trifluoromethyl-pyridin-2-yl)-12H-7-oxa-4,5,12-triaza-benzo[a]anthracene] | ≤ 1000 nM |
| COCc1nc2nc(-c3ncccc3C(F)(F)F)ccc2c2c1Oc1cc(C(C)(C)C)ccc1N2 [Compound 5, 9-tert-Butyl-6-methoxymethyl-3-(3-trifluoromethyl-pyridin-2-yl)-12H-7-oxa-4,5,12-triaza-benzo[a]anthracene] | ≤ 1000 nM |
| COCc1nc2nc(-c3ncccc3C(F)(F)F)ccc2c2c1Oc1cc(S(C)(=O)=O)ccc1N2 [Compound 4, 9-Methanesulfonyl-6-methoxymethyl-3-(3-trifluoromethyl-pyridin-2-yl)-12H-7-oxa-4,5,12-triaza-benzo[a]anthracene] | ≤ 1000 nM |
| COCc1nc2nc(-c3ncccc3C(F)(F)F)ccc2c2c1Oc1cc(C(F)(F)F)ccc1N2 [Compound 1, 6-Methoxymethyl-9-trifluoromethyl-3-(3-trifluoromethyl-pyridin-2-yl)-12H-7-oxa-4,5,12-triaza-benzo[a]anthracene] | ≤ 1000 nM |
| COCc1nc2nc(-c3ncccc3C(F)(F)F)ccc2c2[nH]c3ccc(Br)cc3c(=O)c12 [Compound 16, 9-Bromo-6-methoxymethyl-3-(3-trifluoromethyl-pyridin-2-yl)-12H-4,5,12-triaza-benzo[a]anthracen-7-one] | ≤ 1000 nM |
| FC(F)(F)c1ccc2c(c1)Oc1cnc3nc(-c4ncccc4C(F)(F)F)ccc3c1N2 [Compound 11, 9-Trifluoromethyl-3-(3-trifluoromethyl-pyridin-2-yl)-12H-7-oxa-4,5,12-triaza-benzo[a]anthracene] | ≤ 1000 nM |

Further lines, results first:

| IC50 | SMILES |
| --- | --- |
| ≤ 1000 nM | COCc1nc2nc(-c3ncccc3C(F)(F)F)ccc2c2c1Oc1ccc(Cl)cc1N2 [Compound 3, 10-Chloro-6-methoxymethyl-3-(3-trifluoromethyl-pyridin-2-yl)-12H-7-oxa-4,5,12-triaza-benzo[a]anthracene] |
| ≤ 1000 nM | COCc1nc2nc(-c3ncccc3C(F)(F)F)ccc2c2c1C(O)c1cc(Br)ccc1N2 (centres unmarked) [Compound 17, 9-Bromo-6-methoxymethyl-3-(3-trifluoromethyl-pyridin-2-yl)-7,12-dihydro-4,5,12-triaza-benzo[a]anthracen-7-ol] |
| ≤ 1000 nM | C[C@@H]1CN(Cc2nc3nc(-c4ncccc4C(F)(F)F)ccc3c3c2Oc2cc(C(F)(F)F)ccc2N3)C[C@H](C)O1 [Compound 8, 6-(2,6-Dimethyl-morpholin-4-ylmethyl)-9-trifluoromethyl-3-(3-trifluoromethyl-pyridin-2-yl)-12H-7-oxa-4,5,12-triaza-benzo[a]anthracene (cis)] |
| ≤ 1000 nM | Cc1nc2cc(-c3ncccc3C(F)(F)F)ccc2c2c1Oc1ccccc1N2 [Compound 14, 6-Methyl-3-(3-trifluoromethyl-pyridin-2-yl)-12H-7-oxa-5,12-diaza-benzo[a]anthracene] |
| ≤ 1000 nM | FC(F)(F)c1ccc2c(c1)Oc1c(Cl)nc3nc(-c4ncccc4C(F)(F)F)ccc3c1N2 [Compound 6, 6-Chloro-9-trifluoromethyl-3-(3-trifluoromethyl-pyridin-2-yl)-12H-7-oxa-4,5,12-triaza-benzo[a]anthracene] |
| ≤ 1000 nM | COCc1nc2nc(-c3ncccc3C(F)(F)F)ccc2c2c1Oc1cc(F)ccc1N2 [Compound 13, 9-Fluoro-6-methoxymethyl-3-(3-trifluoromethyl-pyridin-2-yl)-12H-7-oxa-4,5,12-triaza-benzo[a]anthracene] |
| ≤ 1000 nM | OCc1nc2nc(-c3ncccc3C(F)(F)F)ccc2c2c1Oc1cc(C(F)(F)F)ccc1N2 [Compound 7, [9-Trifluoromethyl-3-(3-trifluoromethyl-pyridin-2-yl)-12H-7-oxa-4,5,12-triaza-benzo[a]anthracen-6-yl]-methanol] |
| ≤ 1000 nM | COCc1nc2nc(-c3ncccc3C(F)(F)F)ccc2c2[nH]c3ccc(Cl)cc3c(=O)c12 [Compound 15, 9-Chloro-6-methoxymethyl-3-(3-trifluoromethyl-pyridin-2-yl)-12H-4,5,12-triaza-benzo[a]anthracen-7-one] |
| ≤ 1000 nM | Cc1nc2nc(-c3ncccc3C(F)(F)F)ccc2c2c1Oc1cc(C(F)(F)F)ccc1N2 [Compound 10, 6-Methyl-9-trifluoromethyl-3-(3-trifluoromethyl-pyridin-2-yl)-12H-7-oxa-4,5,12-triaza-benzo[a]anthracene] |
| ≤ 1000 nM | CCCN(CCC)Cc1nc2nc(-c3ncccc3C(F)(F)F)ccc2c2c1Oc1cc(C(F)(F)F)ccc1N2 [Compound 9, Dipropyl-[9-trifluoromethyl-3-(3-trifluoromethyl-pyridin-2-yl)-12H-7-oxa-4,5,12-triaza-benzo[a]anthracen-6-ylmethyl]-amine] |

Reference: patent US20070203133A1, “Substituted 5,12-diaza-benzoanthracene analogues” (Neurogen Corporation, priority 2004, published 2007)
